For 3 compounds, average protein score and critical micellular concentration results are on record in patent US8435756B2, “Anionic acid-labile surfactants and methods of use” (Protea Biosciences, Inc., priority 2008, dated 2013).

One data set concerns the target T1, ovalbumin (Gallus gallus, UniProt P01012).
T1 sequence (P01012 1-386): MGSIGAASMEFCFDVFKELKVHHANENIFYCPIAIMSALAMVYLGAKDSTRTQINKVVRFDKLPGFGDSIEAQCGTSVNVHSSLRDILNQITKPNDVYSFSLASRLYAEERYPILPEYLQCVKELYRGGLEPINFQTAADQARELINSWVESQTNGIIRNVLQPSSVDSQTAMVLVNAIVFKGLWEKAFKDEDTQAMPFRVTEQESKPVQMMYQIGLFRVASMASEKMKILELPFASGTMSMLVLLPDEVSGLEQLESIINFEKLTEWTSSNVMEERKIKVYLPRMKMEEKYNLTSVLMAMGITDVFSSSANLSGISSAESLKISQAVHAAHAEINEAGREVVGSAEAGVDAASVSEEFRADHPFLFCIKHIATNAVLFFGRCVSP
The data set is described as follows: Protein score from in-solution tryptic digestion of ovalbumin (MALDI-TOF MS/MS, Mascot). To be noted: tryptic digestion of 250 μmol ovalbumin; 0.05% AALS-6, other surfactants per manufacturer's protocols; FIG. 3. As for the experimental part: The protein scores from in-solution digestion of ovalbumin in buffers containing an embodiment of an anionic acid-labile surfactant (“AALS-6”) and three commercially available acid labile surfactants are illustrated in FIG. 3. A tryptic digestion of […] ovalbumin was performed using 0.05% AALS-6 in digestion buffer. For the other surfactants, digestion was performed according to the manufacturer's protocols. Sample clean-up and MALDI spotting was performed using C18 reversed phase tips. MALDI-TOF MS and MS/MS spectra were acquired using an ABI 4800 mass spectrometer in the reflector mode. Protein identification was accomplished through database searching MS/MS spectra using Mascot search engine.
The ovalbumin control digestion score is 347. In general, the higher protein score indicates an increase in the quality and/or completeness of the digestion because more peptides are available for analysis by the mass spectrometer, and/or the quality of the digested sample delivered to the mass spectrometer is increased. […] The higher protein score of AALS-6 may also be due to its degradation kinetics. For example, once the digestion experiment is complete, the degradation of the surfactant reduces contamination of the signal by detergent molecules and by-products as well as reduces the ion suppression effects commonly seen in mass spectrometry analysis of peptides and proteins.

Another data set concerns the target BSA (Bos taurus, UniProt P02769). The data set is described as follows: Protein score from in-solution tryptic digestion of BSA (MALDI-TOF, peptide mass fingerprinting). To be noted: tryptic digestion of 250 pmol BSA, 0.05% AALS-6 in digestion buffer; FIG. 2. As for the experimental part:
Protein scores from in-solution digestion of BSA in buffers containing an embodiment of an anionic acid-labile surfactant (“AALS-6”) and three commercially available acid labile surfactants are illustrated in FIG. 2. A tryptic digestion of 250 pmol BSA is performed using 0.05% AALS-6 in digestion buffer. For the other surfactants, digestion is performed according to the manufacturer's protocols. Sample clean-up and MALDI spotting is performed using C18 reversed phase tips. MALDI-TOF spectra are acquired using an ABI 4800 mass spectrometer in the reflector mode. Protein identification is accomplished through peptide mass fingerprinting (PMF) of the acquired MS spectra.
Algorithms that compare mass spectrometric data to database for protein identification compare the experimental tandem mass spectra against theoretical mass spectra from all peptides and proteins present in the databases. As an output for the database correlation analysis, a protein identification score is generated for each potential protein match. Protein matches are required to have a minimum protein score to be considered a potential positive and significant protein identification. The higher the score, the more likely that the protein identification is real and not a result of random events that match the database. […]

Data set [1] can be described thus: Critical micellular concentration. It is filed as physicochemical.

Chain of BSA (P02769 25-607): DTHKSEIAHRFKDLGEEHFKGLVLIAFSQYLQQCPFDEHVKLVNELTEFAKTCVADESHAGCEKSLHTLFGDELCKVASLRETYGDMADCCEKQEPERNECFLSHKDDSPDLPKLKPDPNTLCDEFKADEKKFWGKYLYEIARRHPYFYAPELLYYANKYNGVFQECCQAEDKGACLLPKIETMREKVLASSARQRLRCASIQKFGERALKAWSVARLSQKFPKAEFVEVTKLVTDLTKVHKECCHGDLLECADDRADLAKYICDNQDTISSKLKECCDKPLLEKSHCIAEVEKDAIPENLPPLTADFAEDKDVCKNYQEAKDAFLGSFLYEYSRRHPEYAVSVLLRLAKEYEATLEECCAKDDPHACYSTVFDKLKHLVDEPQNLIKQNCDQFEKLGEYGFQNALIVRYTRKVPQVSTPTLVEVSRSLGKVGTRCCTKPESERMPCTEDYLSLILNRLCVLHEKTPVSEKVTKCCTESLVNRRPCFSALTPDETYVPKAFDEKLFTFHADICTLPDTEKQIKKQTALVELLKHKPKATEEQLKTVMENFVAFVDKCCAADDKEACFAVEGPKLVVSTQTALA

Compound `CCCCCCCCCCC(OC(=O)NCCCS(=O)(=O)[O-])c1ccco1.[Na+]` (centres unmarked) [Proteamax] showed an average protein score on ovalbumin of 329.

Compound `CCCCCCCCCCCC1(C)OCC(COCCCS(=O)(=O)[O-])O1.[Na+]` (centres unmarked) [Rapigest] gave an average protein score on ovalbumin of 341.

On to `CCCCCCOC(C)(COS(=O)(=O)[O-])OCCCCCC.[Na+]` [AALS-6, sodium 2,2-bis(hexyloxy)propyl sulfate], for which the average protein score on BSA worked out at 93; at ovalbumin, 487. The compound also returned a critical micellular concentration in data set [1] of 7.7 mM.
